Data published in patent US12649790B2, “Proteins that bind SP17 including fully-human anti-SP17 antibodies” (Medicovestor, Inc., priority 2023, dated 2026).
“Also recorded” adds a separate entry of the source. *1 amine or outer side, *2 acyl side, *3 side chain or, on linkers, in order; H or OH if unused. Where a SMILES comes first, the peptide text is derived from it. [ ]: non-standard residue; d: D form. The star is where a group is joined. Exatecan = CC[C@@]1(O)C(=O)OCc2c1cc1n(c2=O)Cc2c-1nc1cc(F)c(C)c3c1c2[C@@H](N*)CC3; Hexanoyl(6-maleimido) = O=C1C=CC(=O)N1CCCCCC(=O)*; NHCH2OCH2CO = O=C(COCN[*:1])[*:2]

B1: chAB2: mouse-human chimeric anti-Sp17 monoclonal antibody: human VH/VL (SEQ ID NO: 3, 4) in mouse IgG2a heavy chain and mouse kappa light chain (antibody, V domains shown)
VH: QVQLQQSGAEVKKPGSSVKVSCKASGGTFSSYAISWVRQAPGQGLEWMGRIIPILGIANYAQKFQGRVTITADKSTSTAYMELSSLRSEDTAVYYCARPSEEVVAAYGAFDIWGQGTTVTVSS
VL: EIVLTQSPLSLPVRPGEPASISCRASQSLLRSDGFNYLDWYLQKPGQSPQLLVYLGSNRASGVPDRFSGSGSGTDFTLKISRVEAEDVGVYYCMQAVQTPYIFGQGTKLEIK
modifications: mouse IgG2a and kappa constant regions

Key:
ID8 cells = test: Cytotoxicity assay against ID8 cells; assay type: cell-based, mouse; settings: 3 days
Method: […] The cells were then treated with various concentrations of either the SP17-AB2 antibody, the SP17-AB2-DXD immunoconjugate, hIgG4, or deruxtecan alone. The cells were incubated for 3 additional days, and then cytotoxicity was measured.

SK-OV-3 cells = test: Cytotoxicity assay (luminescence) against SK-OV-3 cells; settings: 5 or 6 days
Method: SK-OV-3 cells were seeded at 1000, 2000, or 3000 cells per well and incubated overnight in advance of a cytotoxicity assay. […] The SK-OV-3 cells were treated with various concentrations of the SP17-AB2 antibody, the SP17-AB2-DXD immunoconjugate, a control human IgG4 antibody (hIgG4), or deruxtecan alone (DXD). The cells were incubated for 5 or 6 additional days, and cytotoxicity was then measured using a luminescence assay and EnVision™ plate reader (PerkinElmer, Massachusetts, United States).

[1] = molecular target: T1, recombinant 6His-Sp17 protein (Homo sapiens, UniProt Q15506); test: Surface plasmon resonance (Biacore T200) of chAB2 binding to recombinant 6His-Sp17; settings: SPR
T1 sequence (Q15506 1-151): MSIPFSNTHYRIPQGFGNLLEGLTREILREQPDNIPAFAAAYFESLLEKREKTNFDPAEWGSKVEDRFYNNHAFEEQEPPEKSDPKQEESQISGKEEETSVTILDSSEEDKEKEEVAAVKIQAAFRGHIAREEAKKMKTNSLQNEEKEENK
Description: The lines correspond, from highest to lowest, to fitted cycles for 300 nanomolar, 100 nanomolar, 50 nanomolar, 25 nanomolar, 12.5 nanomolar, and 6.25 nanomolar concentrations of 6His-Sp17.
(§1) The nucleotide sequences encoding the VH and VL regions of Example 1 were cloned into a mouse IgG2a heavy chain gene and a mouse kappa light chain gene, respectively, and expressed in CHO—S cells to produce a mouse-human chimeric antibody, which was named chAB2. Successful generation of the antibody was confirmed by SDS-PAGE and western blotting using anti-mouse heavy and light chain antibodies and recombinant Sp17 protein (FIGS. 2 & 3).

Sp17 protein = molecular target: T2, Sp17 protein (Homo sapiens, UniProt Q15506); test: Western blot detection of Sp17 protein; assay type: binding; settings: SDS-PAGE of Sp17 protein
T2 sequence (Q15506 1-151): T1 sequence (Q15506 1-151)
Description: as §1
The VH and VL nucleotide sequences of Example 1 were cloned into a human IgG4 heavy chain gene and a human kappa light chain gene, respectively. A Ser228Pro mutation was introduced in the heavy chain to reduce non-specific Fc receptor gamma binding. The resultant antibody was named SP17-AB2. Successful cloning was confirmed by sequence analysis. The amino acid sequences of the heavy chain and light chain are shown in Table 4, and the Ser228Pro mutation is underlined in SEQ ID NO: 11.

[2] = tested on: normal tissue microarray of 33 normal tissues; test: Immunohistochemistry on a normal tissue microarray (specificity); settings: 2-3 human donors per tissue
Method: The specificity of the chAB2 antibody for Sp17 was determined with immunohistochemistry on a normal tissue microarray, which consisted of 33 normal tissues obtained from 2-3 human donors per tissue. The normal tissues included brain, eye, adrenal gland, hypophyseal, thyroid, parathyroid, tonsil, thymus, spleen, heart, lung, larynx, esophagus, stomach, small intestine, colon, liver, pancreas, salivary gland, kidney, bone, skeletal, skin, peripheral nerve, mesothelial, breast, ovary, endometrium, cervix, testis, and prostate.

[3] = molecular target: T3, mouse surface Sp17 protein expressed on the mouse ovarian cancer cell line ID8 (Mus musculus, UniProt Q62252); test: Flow cytometry of ID8 cells labeled with chAB2 and anti-mouse FITC antibody; assay type: cell-based; settings: relative to anti-mouse FITC antibody alone
T3 construct: endogenous in cells; host or cells: ID8 mouse ovarian cancer cell line
T3 sequence (Q62252 1-149): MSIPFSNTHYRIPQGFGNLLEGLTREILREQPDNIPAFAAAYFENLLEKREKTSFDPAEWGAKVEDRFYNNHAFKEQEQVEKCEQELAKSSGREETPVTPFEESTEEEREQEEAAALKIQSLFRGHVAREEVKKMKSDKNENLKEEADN
Method: FIG. 4 consists of three panels. The left panel is a graph that depicts flow cytometry results for ID8 cells incubated with an anti-mouse fluorescein isothiocyanate (FITC) antibody, but without a primary antibody. The middle panel is a graph that depicts flow cytometry results for ID8 cells labeled with the anti-Sp17 antibody chAB2 and the anti-mouse FITC antibody.
as §1

[4] = SK-OV-3 cells at 1000 cells/well
[5] = SK-OV-3 cells at 2000 cells/well
[6] = SK-OV-3 cells at 3000 cells/well

Row | Molecule | Max Cytotoxicity (ID8 cells; ID8 cells at 250 cells/well) [%] | Max Cytotoxicity (ID8 cells; ID8 cells at 500 cells/well) [%] | IC50 (SK-OV-3 cells; [4]) [nM] | Max Cytotoxicity (SK-OV-3 cells; [4]) [%] | IC50 (SK-OV-3 cells; [5]) [nM] | Max Cytotoxicity (SK-OV-3 cells; [5]) [%] | IC50 (SK-OV-3 cells; [6]) [nM] | Max Cytotoxicity (SK-OV-3 cells; [6]) [%] | association rate constant (ka) for chAB2 to Sp17 ([1]; 6.25-300 nanomolar 6His-Sp17) | Kd ([1]; Biacore T200, read-out: dissociation constant (KD)) [nM] | binding/detection of Sp17 protein by western blot (Sp17 protein) | binding to normal human tissues / cross-reactivity by immunohistochemistry [2] | reactivity to surface Sp17 on ID8 cells by flow cytometry (mean fluorescent intensity) [3]
1 | CC[C@@]1(O)C(=O)OCc2c1cc1n(c2=O)Cc2c-1nc1cc(F)c(C)c3c1c2[C@@H](NC(=O)COCNC(=O)CNC(=O)[C@H](Cc1ccccc1)NC(=O)CNC(=O)CNC(=O)CCCCCN1C(=O)C=CC1=O)CC3 [deruxtecan] ({Hexanoyl(6-maleimido)}-GGFG[NHCH2OCH2CO]-Exatecan) | 94 | 93 | 0.75 | 98 | 1.1 | 97 | 1.2 | 97 | – | – | – | – | –
2 | B1 | – | – | – | – | – | – | – | – | 62,600 per mole per second | ~2 | Sp17 protein was detected | bound to testis and did not bind to normal tissues; also recorded: lack detectable cross-reactivity | reactive to mouse surface Sp17 protein; also recorded: increased mean fluorescent intensity
